Assays:
Assay type in all cases: functional, cell-based
A549 [1] = test: Cytotoxicity against human A549 cells by MTT assay
MCF7 [2] = test: Growth inhibition of human MCF7 cells after 48 hrs by MTT assay
MCF7 [3] = test: Cytotoxicity against human MCF7 cells by MTT assay
HepG2 [4] = test: Growth inhibition of human HepG2 cells after 48 hrs by MTT assay
Hep 3B2 [5] = test: Growth inhibition of human Hep3B cells after 48 hrs by MTT assay
A549 [6] = test: Growth inhibition of human A549 cells after 48 hrs by MTT assay
HepG2 [7] = test: Cytotoxicity against human HepG2 cells by MTT assay
Hep 3B2 [8] = test: Cytotoxicity against human Hep3B cells by MTT assay

CC1(C)C=Cc2c([C@@H]3CCc4ccc(O)cc4O3)ccc(O)c2O1
IC50 (A549 [1]): > 100 µM
growth inhibition (GI) (MCF7 [2]): Dose-dependent effect
IC50 (MCF7 [3]): > 100 µM
growth inhibition (GI) (HepG2 [4]): Dose-dependent effect
growth inhibition (GI) (Hep 3B2 [5]): Dose-dependent effect
growth inhibition (GI) (A549 [6]): Dose-dependent effect
IC50 (HepG2 [7]): > 100 µM
IC50 (Hep 3B2 [8]): 75.7 µM

CC1(C)CCc2c([C@H]3CCc4ccc(O)cc4O3)ccc(O)c2O1
IC50 (A549 [1]): > 100 µM
growth inhibition (GI) (MCF7 [2]): Dose-dependent effect
IC50 (MCF7 [3]): > 100 µM
growth inhibition (GI) (HepG2 [4]): Dose-dependent effect
growth inhibition (GI) (Hep 3B2 [5]): Dose-dependent effect
growth inhibition (GI) (A549 [6]): Dose-dependent effect
IC50 (HepG2 [7]): > 100 µM
IC50 (Hep 3B2 [8]): 41.7 µM

O=c1[nH]cc(F)c(=O)[nH]1 [FLUOROURACIL]
IC50 (MCF7 [3]): 30 µM
IC50 (HepG2 [7]): 32.6 µM
IC50 (Hep 3B2 [8]): 11.9 µM

CC1(C)CCc2c(C3CCc4ccc(O)cc4O3)ccc(O)c2O1 (racemic)
IC50 (A549 [1]): > 100 µM
growth inhibition (GI) (MCF7 [2]): Dose-dependent effect
IC50 (MCF7 [3]): > 100 µM
growth inhibition (GI) (HepG2 [4]): Dose-dependent effect
growth inhibition (GI) (Hep 3B2 [5]): Dose-dependent effect
growth inhibition (GI) (A549 [6]): Dose-dependent effect
IC50 (HepG2 [7]): > 100 µM
IC50 (Hep 3B2 [8]): 51 µM

CC(C)=CCc1c([C@@H]2CCc3ccc(O)cc3O2)ccc(O)c1O
IC50 (A549 [1]): > 100 µM
growth inhibition (GI) (MCF7 [2]): Dose-dependent effect
IC50 (MCF7 [3]): > 100 µM
growth inhibition (GI) (HepG2 [4]): Dose-dependent effect
growth inhibition (GI) (Hep 3B2 [5]): Dose-dependent effect
growth inhibition (GI) (A549 [6]): Dose-dependent effect
IC50 (HepG2 [7]): > 100 µM
IC50 (Hep 3B2 [8]): 62.2 µM

CC(C)=CCc1c(C2CCc3ccc(O)cc3O2)ccc(O)c1O (racemic)
IC50 (A549 [1]): > 100 µM
growth inhibition (GI) (MCF7 [2]): Dose-dependent effect
IC50 (MCF7 [3]): > 100 µM
growth inhibition (GI) (HepG2 [4]): Dose-dependent effect
growth inhibition (GI) (Hep 3B2 [5]): Dose-dependent effect
growth inhibition (GI) (A549 [6]): Dose-dependent effect
IC50 (HepG2 [7]): > 100 µM
IC50 (Hep 3B2 [8]): 81.2 µM
